The text below walks through data of US20250381181A1, “CANCER TREATMENT AGENT INCLUDING MALT1 INHIBITING DRUG AS ACTIVE INGREDIENT” (ONO PHARMACEUTICAL CO., LTD., priority 2022, published 2025).

The subject of one assay is Human MCL cell line. Put plainly: Combination of Compound A and Btk inhibitor or Bcl-2 inhibitor, cell viability (Cell Counting Kit-8). The format is cell-based. To be noted: combined treatment with Compound A (10, 30 or 100 nmol/L), 6 days. From the text: (§1) Treatment concentrations of Compound A were 10, 30 or 100 nmol/L, and treatment concentrations of the Btk inhibitor and the Bcl-2 inhibitor were set between 0.3 to 300 nmol/L or 0.003 to 10 nmol/L, respectively.

The subject of assay [1] is Human CD79 mutation-positive DLBCL cell line. The assay is described as above. Type of assay: cell-based. To be noted: combined treatment with Compound A (10, 30 or 100 nmol/L), 6 days.
From the text: as §1

Assay [2] deals with Human CD79 mutation-positive diffuse large B-cell lymphoma cell line. Briefly: Combination of Compound A and each anticancer agent, cell viability (Cell Counting Kit-8). To be noted: combined treatment with Compound A (3, 10, 30 or 100 nmol/L); CD79 mutation-positive DLBCL; 6 days.
Description: (§6) Human CD79 mutation-positive diffuse large B-cell lymphoma cell lines and human mantle cell lymphoma cell lines were used. The cells were subcultured using RPMI1640 containing 10% non-mobilized fetal bovine serum (hereinafter, the medium) under conditions of 5% CO2 and 37° C.
(§7) The cells suspended in the medium were seeded in 96 well plates at a density of 2500 or 5000 cells/100 μL per well. […] After completion of the culture, the number of surviving cells was measured using Cell Counting Kit-8 (DOJINDO) according to the procedure of the kit.
The subject of assay [3] is Human mantle cell lymphoma cell line. The assay is described as above. The conditions noted are these: combined treatment with Compound A (3, 10, 30 or 100 nmol/L), 6 days.
Description: as §6, §7
Assay [4] concerns human CD79 mutation-positive diffuse large B-cell lymphoma cell line. Put plainly: Antitumor effect in mouse subcutaneous transplantation model. The format is in vivo. To be noted: orally for 21 days; Compound A 10 mg/kg twice a day, Ibrutinib 10 mg/kg once a day; subcutaneous tumor in NOG mice.
Description: A human CD79 mutation-positive diffuse large B-cell lymphoma cell line was used. The cells were subcultured using Iscove's modified Dulbecco's medium containing 20% inactivated calf serum and 0.5 mmol/L Monothioglycerol under conditions of 5% CO2 and 37° C.
The cells were suspended in HBSS:Matrigel=1:1 and implanted subcutaneously in the abdomen of 7-week-old female NOG mice at 1×10^6 cells/mouse. The tumor volume was measured using a caliper, and calculated by a calculation formula of tumor volume=(major tumor diameter×minor tumor diameter×minor tumor diameter)/2. At the time when the tumor volume reached about 120 mm^3, grouping was performed into 4 groups of 6 mice per group. Compound A was orally administered at a dose of 10 mg/kg twice a day for 21 days, and Ibrutinib was orally administered at a dose of 10 mg/kg once a day for 21 days. Also, the combined administration group was orally administered with 10 mg/kg of Compound A and 10 mg/kg of ibrutinib. The control group was orally administered with a 0.5% methylcellulose solution. After grouping, tumor volume measurements were performed twice a week. T/C (%) was used as an index of the antitumor effect.
Regarding the amount of tumor volume change during the administration period of each group, the combined antitumor effect of Compound A and Ibrutinib was analyzed by a statistical method of two-way ANOVA of EZR (ver. 1.54) software.
For assay [5], the system named is Human CD79 mutation-positive diffuse large B-cell lymphoma cell line 2. Put plainly: Combined effect on cell viability, Compound A and Btk inhibitor (CellTiter-Glo, in vitro). The format is cell-based. The conditions noted are these: combined treatment with Compound A, 6 days of culture. Here is the method: (§2) Using Ibrutinib as a Btk inhibitor, the combined effect on cell viability with Compound A was evaluated in vitro.
(§3) After 6 days of culture from the addition, the cell viability was evaluated as follows.
(§4) Cell viability was evaluated by each treatment by measuring intracellular adenosine triphosphate (ATP) using CellTiter-Glo. That is, 100 μL of CellTiter-Glo solution per well was added to each well and incubated at room temperature for 15 minutes, and then chemiluminescence was measured. The average value of each combination was calculated from the obtained data, and a concentration reaction curve of the cell viability of each drug alone or in combination was created with the luminescence intensity in cells treated with DMSO alone as 100%.
(§5) The half maximal inhibitory concentration (IC50) for each drug was determined using median effect analysis software CalcuSyn 2.0 (CalcuSyn, Inc).
A general note: ATP-based viability assays read luminescence as a measure of living cells.

Assay [6] relates to Human CD79 mutation-positive diffuse large B-cell lymphoma cell line 1. The assay is described as above. The format is cell-based. The conditions noted are these: combined treatment with Compound A. Here is the method: as §2, §3, §4, §5
Assay [7] deals with Human CARD11 mutation-positive DLBCL cell line. Briefly: Combination of Compound A and Bcl-2 inhibitor, cell viability (Cell Counting Kit-8). Type of assay: cell-based. The conditions noted are these: combined treatment with Compound A (10, 30 or 100 nmol/L), 6 days.
From the text: as §1
(Tetrazolium dyes change colour on reduction, which living cells bring about.)

Consider `O=C(c1ccc(Oc2ccccc2)cc1Cl)c1c[nH]c2ncnc(N[C@@H]3CC[C@@H](CO)OC3)c12` [ARQ-531], for which the “Combination index (CI) value, median” value in the assay with Human MCL cell line amounted to 0.928; in assay [1] it was 0.701.
As to `CC#CC(=O)N1CCC[C@H]1c1nc(-c2ccc(C(=O)Nc3ccccn3)cc2)c2c(N)nccn12` [Acarabrutinib], the entries for the “Combination index (CI) value, median” value (with Human MCL cell line; in assay [1]) were 0.956 and 0.839, respectively.
As for `Nc1cc(C(F)(F)F)c(-c2cc(N3CCOCC3)nc(N3CCOCC3)n2)cn1` [BKM120], the “Combination index (CI) value, median” value in assay [2] came out at 0.729.
Regarding `C=C(c1ccc(C(=O)O)cc1)c1cc2c(cc1C)C(C)(C)CCC2(C)C` [Bexarotene], in assay [3], the “Combination index (CI) value, median” value was found to be 0.276.
On to `Cc1cc(-c2nc(C(=O)Nc3cc4oc(N5CCOCC5)nc4nc3N3CC[C@@H](O)C3)co2)ccn1` [CA-4948], for which the “Combination index (CI) value, median” value was found to be 0.846 in assay [3] and 0.905 in assay [2].
With `CO[C@@H](C)c1c(NC(=O)Nc2cnc(-n3nccn3)c(C(F)(F)F)c2)cnc2ccc(Cl)nc12` [Compound A, (S)—N-(6-chloro-4-(1-methoxyethyl)-1,5-naphthyridin-3-yl)-N′-(6-(2H-1,2,3-triazol-2-yl)-5-(trifluoromethyl)pyridin-3-yl)urea], the “T/C (%)” value in assay [4] is 49.8%.
As to `COc1cccc2c1C(=O)c1c(O)c3c(c(O)c1C2=O)C[C@@](O)(C(=O)CO)C[C@@H]3O[C@H]1C[C@H](N)[C@H](O)[C@H](C)O1` [Doxorubicin], the “Combination index (CI) value, median” value in assay [3] was 0.932; in assay [2], 0.953.
The corresponding values for `Cn1cc(C2=C(c3cn(C4CCN(Cc5ccccn5)CC4)c4ccccc34)C(=O)NC2=O)c2ccccc21` [Enzastaurin] are 0.842 and 0.854.
The like results for `CO[C@H]1C[C@@H]2CC[C@@H](C)[C@@](O)(O2)C(=O)C(=O)N2CCCC[C@H]2C(=O)O[C@H]([C@H](C)C[C@@H]2CC[C@@H](OCCO)[C@H](OC)C2)CC(=O)[C@H](C)/C=C(\C)[C@@H](O)[C@@H](OC)C(=O)[C@H](C)C[C@H](C)/C=C/C=C/C=C/1C` [Everolimus] were, in that order, 0.225 and 0.464.
The corresponding values for `CS(=O)(=O)N1CCN(Cc2cc3nc(-c4cccc5[nH]ncc45)nc(N4CCOCC4)c3s2)CC1` [GDC-0941] are 0.694 and 0.873.
In the case of `C=CC(=O)N1CCC[C@@H](n2nc(-c3ccc(Oc4ccccc4)cc3)c3c(N)ncnc32)C1` [Ibrutinib], the “combination index (CI), median” value in assay [5] was determined as 0.504; in assay [6] (cell line 1, 6 days of culture) it was 0.629. The “median of CI” value in assay [6] (in each cell line (cell lines 1 and 2), synergistic effect) is reported as “less than 1”. Further, the “T/C (%)” value in assay [4] came to 63.1%.
`CC[C@H](Nc1ncnc2[nH]cnc12)c1nc2cccc(F)c2c(=O)n1-c1ccccc1` [Idelalisib]: the “Combination index (CI) value, median” value in assay [3] amounted to 0.457; in assay [2], 0.528.
Regarding `COc1ccc(F)cc1C(=O)NCc1ccc(-c2nn([C@@H](C)C(F)(F)F)c(N)c2C(N)=O)cc1` [LOXO-305], the figures for the “Combination index (CI) value, median” value (with Human MCL cell line; in assay [1]) were 0.646 and 0.764, respectively.
`Nc1cccc2c1CN(C1CCC(=O)NC1=O)C2=O` (stereo not drawn) [Lenalidomide]: the “Combination index (CI) value, median” value is recorded as 0.190 in assay [3] and 0.736 in assay [2].
As for `NC1(c2ccc(-c3nc4ccn5c(=O)[nH]nc5c4cc3-c3ccccc3)cc2)CCC1` [MK-2206], the “Combination index (CI) value, median” value in assay [3] worked out at 0.915; in assay [2], 0.626.
In the case of `NC(=O)c1cnc(N[C@@H]2CCCC[C@@H]2N)nc1Nc1cccc(-n2nccn2)c1` [PRT062607], the “Combination index (CI) value, median” value turned out to be 0.820 in assay [3] and 0.630 in assay [2].
The corresponding values for `CC(=O)c1c(C)c2cnc(Nc3ccc(N4CCNCC4)cn3)nc2n(C2CCCC2)c1=O` [Palbociclib] are 0.443 and 0.658.
The like results for `C[C@]12C=CC(=O)C=C1CC[C@@H]1[C@@H]2[C@@H](O)C[C@@]2(C)[C@H]1CC[C@]2(O)C(=O)CO` [Prednisolone] were, in that order, 0.854 and 0.168.
With `CN1CCN(c2nc(C3=C(c4c[nH]c5ccccc45)C(=O)NC3=O)c3ccccc3n2)CC1` [Sotrastaurin], the “Combination index (CI) value, median” value in assay [3] came out at 0.775; in assay [2], 0.896.
`CC#CC(=O)N1CC[C@@H](n2c(=O)n(-c3ccc(Oc4ccccc4)cc3)c3c(N)ncnc32)C1` [Tirabrutinib]: the entries for the “Combination index (CI) value, median” value (in the assay with Human MCL cell line; in assay [1]) were 0.822 and 0.761, respectively.
As for `CC(=O)Nc1cccc(-n2c(=O)n(C3CC3)c(=O)c3c(Nc4ccc(I)cc4F)n(C)c(=O)c(C)c32)c1` [Trametinib], the “Combination index (CI) value, median” value came to 0.971 in assay [3] and 0.218 in assay [2].
The corresponding values for `Nc1cc(F)ccc1NC(=O)c1ccc(CNC(=O)/C=C/c2cccnc2)cc1` [Tucidinostat] are 0.668 and 0.756.
On to `CC1(C)CCC(CN2CCN(c3ccc(C(=O)NS(=O)(=O)c4ccc(NCC5CCOCC5)c([N+](=O)[O-])c4)c(Oc4cnc5[nH]ccc5c4)c3)CC2)=C(c2ccc(Cl)cc2)C1` [Venetoclax], for which the “Combination index (CI) value, median” value was found to be 0.372 in the assay on Human MCL cell line, 0.5985 in assay [1] and 0.5995 in assay [7].
Take `O=C(CCCCCCC(=O)Nc1ccccc1)NO` [Vorinostat]: the entries for the “Combination index (CI) value, median” value in assay [3] and in assay [2] were 0.866 and 0.930, respectively.
For the molecule `CN1CCC(c2ccccc2CC(C)(C)Nc2nc(N3CCOCC3)nc(-n3c(C(F)F)nc4ccccc43)n2)CC1` [Zandelisib], the results for the “Combination index (CI) value, median” value in assay [3] and in assay [2] were 0.698 and 0.494, respectively.
On to `C=CC(=O)N1CCC([C@@H]2CCNc3c(C(N)=O)c(-c4ccc(Oc5ccccc5)cc4)nn32)CC1` [Zanubrutinib], for which the figures for the “Combination index (CI) value, median” value (in the assay on Human MCL cell line; in assay [1]) were 0.75 and 0.811, respectively.
Turning to Irinotecan (SN-38), the “Combination index (CI) value, median” value in assay [3] turned out to be 0.903; in assay [2], 0.993.
